In patent US20240156931A1, “COLLECTION AND USES OF TISSUE RESIDENT INTERSTITIAL EXTRACELLULAR VESICLES” (priority 2022, published 2024):
“Also recorded” adds a separate entry of the source.

How the values were obtained:
eGFP-4T1 cells = assay: Mitophagy induction / mitochondrial EV fluorescent labelling (CCCP perturbation); format: cell-based, murine
Text: To further verify that PINK1-associated EVs contained mitochondrial components via a orthogonal methods, we performed a functional perturbation in vitro to induce the cellular release of mitophagy-associated EVs. We treated sub-confluent eGFP-4T1 cells with a mitochondrial depolarization protonophore carbonyl cyanide m-chlorophenyl hydrazone (CCCP) (Villa et al., 2017) and added a permanent fluorescent label for active mitochondrial membranes with MitoTracker Deep Red (MTDR) (Chazotte, 2011). After 48 h, the cells reached 70% confluency and were harvested by differential ultracentrifugation.
Two 4T1-eGFP cell cultures were plated at 10^6 cells/ml. Untreated cells were left to grow for 5 days. Treated cells were stimulated with 10 nM of carbonyl cyanide 3-chlorophenylhydrazone (CCCP) (Sigma) and left to grow for 5 days. The supernatants were collected and EVs fractions were isolated by differential ultracentrifugation. The resulting 100K EVs were probed for anti-ARIH1 (Santa Cruz) by Western blot.
Two 4T1-eGFP-Puro cell cultures were plated at 10^6 cells/ml. Untreated cells were left to grow for 48 h. Treated cells were stimulated with 10 nM and 10 μM of CCCP and left to grow for 48 h. At 48 h, 50 nM of MitoTracker Deep Red (MTDR) (Thermo Fisher) was added to the media and left to sit overnight in the cell incubator. The supernatants were collected and EVs were isolated by differential ultracentrifugation. EVs subpopulations were plated at 30 μl and scanned for peak emission fluorescent intensity fluorescence at […] (absorbance/emission) for GFP and 635/675 nm (absorbance/emission) for MTDR on a Tecan safire2 plate reader.

irradiated tumor = settings: mice; cited from earlier work
[1] = system: Ovarian Cancer tumor cells; assay: EVs released by ovarian cancer cells undergoing cisplatin treatment (Western blot, RPPA); format: cell-based
Method: A) Ovarian Cancer tumor cells are treated with pulses of cisplatin, a common ovarian cancer therapeutic. EVs released by the cancer cells undergoing cisplatin treatment are isolated by differential ultracentrifugation and analyzed via Western Blot, mass spectrometry, and reverse phase protein array in order to determine potential pathways and markers that are indicative of cancer resistance. […] Additionally, the subpopulations are present with typical EV related tetraspanin markers.
In an embodiment, RPPA assays previously used for tissue lysates can be adapted for use with EV subpopulations.

## N#CC(C#N)=NNc1cccc(Cl)c1 [CCCP, carbonyl cyanide m-chlorophenyl hydrazone]
eGFP-4T1 cells; MTDR fluorescence normalized to GFP by EV subpopulation
  MitoTracker Deep Red (MTDR) in 100K EVs: increased release of 100K EVs containing active mitochondrial molecules; also recorded: increasing levels
eGFP-4T1 cells; compared to no treatment, Western blot
  ARIH1 presence in the 100K EVs: induced ARIH1 presence
eGFP-4T1 cells; increasing CCCP up to 10 μM (cytotoxic level), 48 h, Western blot
  release of CD81+/PINK1+ 100K EVs: release of increased Parkin-independent mitophagy-containing 100K EVs; also recorded: increased release of CD81+/PINK1+ 100K EVs in a dose dependent manner; also recorded: increased export of PINK1 and MitoTracker

## CCN(CC)CCCC(C)Nc1ccnc2cc(Cl)ccc12 (centres unmarked) [chloroquine]
Irradiated tumor
  response to radiation therapy: improves response

## N.N.[Cl][Pt][Cl] [cisplatin]
[1]; 2K EV population
  RPPA ratio pre to post treatment, EGFR (pY1068) and Bax pathways: greatly increased
[1]; 10K EV population
  RPPA ratio pre to post treatment, Akt: 11 fold
[1]; 100K EV population
  RPPA pathways altered after treatment: few pathways were altered
[1]; post-treatment EVs compared to pre-treatment
  LC3-I/II (autophagy) and PD-L1 in EV subpopulations, Western blot: upregulating
